This is an account of results in US12410208B2, “(2-acetamidyl)thio-beta-D-galactopyranoside derivatives” (Idorsia Pharmaceuticals Ltd, priority 2020, dated 2025).

Test [1] concerns the target biotinylated human Gal-3 (hGal-3) (Homo sapiens, UniProt P17931). The experiment in a line: Competitive binding assay: biotinylated hGal-3 binding to microplate-adsorbed asialofetuin (ASF), spectrophotometric. Here is the method:
If not explicitly mentioned otherwise, the inhibition data refer to the binding of biotinylated human Gal-3 (hGal-3).
(§1) Biological Assay Evaluation of Compound Inhibitory Activity (IC50)
The inhibitory activity of compounds is determined in competitive binding assays.
Briefly, compounds are serially diluted in DMSO (working dilutions).
(§2) Plates are incubated for 3 hours at 4° C., then washed with cold assay buffer (3×50 uL), incubated for 1 hour with 25 μL/well of a streptavidin-peroxidase solution (diluted in assay buffer to 80 ng/mL) at 4° C., followed by further washing steps with assay buffer (3×50 uL). Finally, 25 μL/well of ABTS substrate is added.
(§3) The calculated IC50 values may fluctuate depending on the daily assay performance. Fluctuations of this kind are known to those skilled in the art. IC50 values from several measurements are given as mean values.

For test [2], the target named is human Gal-1 (hGal-1) (Homo sapiens, UniProt P09382). The test is described as follows: Competitive binding assay: biotinylated hGal-1 binding to microplate-adsorbed asialofetuin (ASF), spectrophotometric. The following applies: hGal-1 binding to asialofetuin; Table 15; R and S epimers of selected Examples also listed; read-out: IC50 (Galectin-1 inhibition). Here is the method:
as §1
The inhibitory activity of compounds is determined in competitive binding assays. This spectrophotometric assay measures the binding of biotinylated human Gal-3 (hGal-3) or human Gal-1 (hGal-1), respectively, to a microplate-adsorbed glycoprotein, asialofetuin (ASF) (Proc Natl Acad Sci USA. 2013 Mar. 26; 110(13):5052-7.).
Briefly, compounds are serially diluted in DMSO (working dilutions). ASF-coated 384well plates are supplemented with 22.8 μL/well of biotinylated hGal-3 or hGal-1 in assay buffer (i.e. 300-1000 ng/mL biotinylated hGal-3 or hGal-1) to which 1.2 μL of compound working dilutions are added and mixed.
as §2, §3

Where [3] appears, read: Table 11, hGal-3, read-out: IC50 (Gal-3 inhibition).
[4] abbreviates: Gal-3 inhibition, Table 5, read-out: IC50.
Where [5] appears, read: Table 13, hGal-3, read-out: IC50 (Gal-3 inhibition).

Like-named read-outs stand apart in the source and are kept apart here.

Chain of human Gal-1 (hGal-1) (P09382 whole entry): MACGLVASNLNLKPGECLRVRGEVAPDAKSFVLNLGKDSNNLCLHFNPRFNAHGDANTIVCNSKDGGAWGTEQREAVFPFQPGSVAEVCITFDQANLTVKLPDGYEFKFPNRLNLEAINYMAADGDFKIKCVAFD
Chain of biotinylated human Gal-3 (hGal-3) (P17931 whole entry): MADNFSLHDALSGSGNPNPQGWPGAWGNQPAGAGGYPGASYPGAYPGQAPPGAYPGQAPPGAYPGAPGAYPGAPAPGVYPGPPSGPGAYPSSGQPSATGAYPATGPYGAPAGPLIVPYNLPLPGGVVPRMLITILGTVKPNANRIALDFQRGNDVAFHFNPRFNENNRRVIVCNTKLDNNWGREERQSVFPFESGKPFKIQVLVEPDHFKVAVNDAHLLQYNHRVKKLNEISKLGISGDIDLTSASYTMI

In the case of `CCN(C)C(=O)C(S[C@@H]1O[C@H](CO)[C@H](O)[C@H](n2cc(-c3cc(C)cc(C#N)c3)nn2)[C@H]1O)C1(O)CCOCC1` (stereo partly drawn) [Example 19.41.203., 2-(((2S,3R,4S,5R,6R)-4-(4-(3-Cyano-5-methylphenyl)-1H-1,2,3-triazol-1-yl)-3,5-dihydroxy-6-(hydroxymethyl)tetrahydro-2H-pyran-2-yl)thio)-N-ethyl-2-(4-hydroxytetrahydro-2H-pyran-4-yl)-N-methylacetamide], the IC50 in test [1] (setting [3]) and in test [2] was 0.15 µM each time.
Take `O=C(C(S[C@@H]1O[C@H](CO)[C@H](O)[C@H](n2cc(-c3cc(F)c(F)c(F)c3)nn2)[C@H]1O)C1(O)CCCCC1)N1CCCCC1` (stereo partly drawn) [Example 2.39.208., 2-(((2S,3R,4S,5R,6R)-3,5-Dihydroxy-6-(hydroxymethyl)-4-(4-(3,4,5-trifluorophenyl)-1H-1,2,3-triazol-1-yl)tetrahydro-2H-pyran-2-yl)thio)-2-(1-hydroxycyclohexyl)-1-(piperidin-1-yl)ethan-1-one]: the IC50 was determined as 0.02 µM in test [1] (setting [4]) and 0.07 µM in test [2].
Regarding `CN(C)C(=O)C(S[C@@H]1O[C@H](CO)[C@H](O)[C@H](n2cc(-c3cc(F)c(F)c(F)c3)nn2)[C@H]1O)C1(O)CCC(F)(F)CC1` (single isomer, unassigned) [Example 2.44.201R.], the IC50 is 1.33 µM in test [1] (setting [4]) and 1.71 µM in test [2].
Turning to `CO[C@@H]1[C@@H](n2cc(-c3cc(F)c(F)c(F)c3)nn2)[C@@H](O)[C@@H](CO)O[C@H]1SC(C(=O)N1CCC(F)(F)CC1)C1(O)CCC2(CCOCC2)CC1` (stereo partly drawn) [Example 2.72.226.I., 1-(4,4-Difluoropiperidin-1-yl)-2-(((2S,3R,4S,5R,6R)-5-hydroxy-6-(hydroxymethyl)-3-methoxy-4-(4-(3,4,5-trifluorophenyl)-1H-1,2,3-triazol-1-yl)tetrahydro-2H-pyran-2-yl)thio)-2-(9-hydroxy-3-oxaspiro[5.5]undecan-9-yl)ethan-1-one], the IC50 worked out at 0.06 µM in test [1] (setting [5]) and 0.12 µM in test [2].
Turning to `CCN(C)C(=O)C(S[C@@H]1O[C@H](CO)[C@H](O)[C@H](n2cc(-c3cc(C)cc(F)c3)nn2)[C@H]1O)C1(O)CCOCC1` (stereo partly drawn) [Example 20.41.203., N-ethyl-2-(((2S,3R,4S,5R,6R)-4-(4-(3-Fluoro-5-methylphenyl)-1H-1,2,3-triazol-1-yl)-3,5-dihydroxy-6-(hydroxymethyl)tetrahydro-2H-pyran-2-yl)thio)-2-(4-hydroxytetrahydro-2H-pyran-4-yl)-N-methylacetamide], the figures for the IC50 in test [1] (setting [3]) and in test [2] were 0.06 µM and 0.18 µM, respectively.
`CO[C@@H]1[C@@H](n2cc(-c3cc(F)c(F)c(F)c3)nn2)[C@@H](O)[C@@H](CO)O[C@H]1SC(C(=O)NC1CCOCC1)C1(O)CCC(F)(F)CC1` (stereo partly drawn) [Example 2.44.249.I., 2-(4,4-Difluoro-1-hydroxycyclohexyl)-2-(((2S,3R,4S,5R,6R)-5-hydroxy-6-(hydroxymethyl)-3-methoxy-4-(4-(3,4,5-trifluorophenyl)-1H-1,2,3-triazol-1-yl)tetrahydro-2H-pyran-2-yl)thio)-N-(tetrahydro-2H-pyran-4-yl)acetamide]: the IC50 in test [1] (Table 12, hGal-3, read-out: IC50 (Gal-3 inhibition)) turned out to be 0.08 µM; in test [2], 0.36 µM.
On to `CN1CCC(O)(C(S[C@@H]2O[C@H](CO)[C@H](O)[C@H](n3cc(-c4cc(F)c(F)c(F)c4)nn3)[C@H]2O)C(=O)N(C)Cc2ccccc2)CC1` (stereo partly drawn) [Example 2.40.207., N-Benzyl-2-(((2S,3R,4S,5R,6R)-3,5-dihydroxy-6-(hydroxymethyl)-4-(4-(3,4,5-trifluorophenyl)-1H-1,2,3-triazol-1-yl)tetrahydro-2H-pyran-2-yl)thio)-2-(4-hydroxy-1-methylpiperidin-4-yl)-N-methylacetamide], for which the IC50 turned out to be 0.09 µM in test [1] (Gal-3 inhibition, Table 4, read-out: IC50) and 0.59 µM in test [2].
As for “(2R,3R,4S,5R,6S)-2-(Acetoxymethyl)-6-(((S)-2-(ethyl(methyl)amino)-1-(3-hydroxy-1-(methoxycarbonyl)azetidin-3-yl)-2-oxoethyl)thio)-4-(4-(3,4,5-trifluorophenyl)-1H-1,2,3-triazol-1-yl)tetrahydro-2H-pyran-3,5-diyl diacetate [Example 2.58.203S.]”, the IC50 in test [1] (Table 8, hGal-3, read-out: IC50 (Gal-3 inhibition)) worked out at 0.03 µM; in test [2], 0.1 µM.
In the case of `CCN(C)C(=O)C(S[C@@H]1O[C@H](CO)[C@H](O)[C@H](n2cc(-c3nc(Br)cs3)nn2)[C@H]1O)C1(O)CCOCC1` (stereo partly drawn) [Example 14.41.203., 2-(((2S,3R,4S,5R,6R)-4-(4-(4-Bromothiazol-2-yl)-1H-1,2,3-triazol-1-yl)-3,5-dihydroxy-6-(hydroxymethyl)tetrahydro-2H-pyran-2-yl)thio)-N-ethyl-2-(4-hydroxytetrahydro-2H-pyran-4-yl)-N-methylacetamide], the IC50 in test [1] (setting [3]) was determined as 0.15 µM; in test [2], 0.03 µM.
`CO[C@@H]1[C@@H](n2cc(-c3cc(F)c(F)c(F)c3)nn2)[C@@H](O)[C@@H](CO)O[C@H]1SC(C(=O)N1CCC(F)(F)CC1)C1(O)CCC2(CC2)CC1` (stereo partly drawn) [Example 2.67.226.1., 1-(4,4-Difluoropiperidin-1-yl)-2-(((2S,3R,4S,5R,6R)-5-hydroxy-6-(hydroxymethyl)-3-methoxy-4-(4-(3,4,5-trifluorophenyl)-1H-1,2,3-triazol-1-yl)tetrahydro-2H-pyran-2-yl)thio)-2-(6-hydroxyspiro[2.5]octan-6-yl)ethan-1-one]: the half-inhibitory concentration (IC50) in test [1] (setting [5]) turned out to be 0.12 µM; in test [2], 0.17 µM.
As to `CO[C@@H]1[C@@H](n2cc(-c3cc(F)c(F)c(F)c3)nn2)[C@@H](O)[C@@H](CO)O[C@H]1SC(C(=O)NC1CCC(C)(C)CC1)C1(O)CCC(F)(F)CC1` (stereo partly drawn) [Example 2.44.255.I., 2-(4,4-Difluoro-1-hydroxycyclohexyl)-N-(4,4-dimethylcyclohexyl)-2-(((2S,3R,4S,5R,6R)-5-hydroxy-6-(hydroxymethyl)-3-methoxy-4-(4-(3,4,5-trifluorophenyl)-1H-1,2,3-triazol-1-yl)tetrahydro-2H-pyran-2-yl)thio)acetamide], in test [2], the IC50 is 0.83 µM.
Take `CC(C)(O)[C@H](S[C@@H]1O[C@H](CO)[C@H](O)[C@H](n2cc(-c3cc(F)c(F)c(F)c3)nn2)[C@H]1O)C(=O)N1CCCC1` [Example 2.31.211S., (S)-2-(((2S,3R,4S,5R,6R)-3,5-Dihydroxy-6-(hydroxymethyl)-4-(4-(3,4,5-trifluorophenyl)-1H-1,2,3-triazol-1-yl)tetrahydro-2H-pyran-2-yl)thio)-3-hydroxy-3-methyl-1-(pyrrolidin-1-yl)butan-1-one]: the IC50 in test [2] was 0.53 µM.
Still for that read-out and setting: the figure for `Cc1cc(-c2cn([C@H]3[C@@H](O)[C@@H](CO)O[C@@H](S[C@H](C(=O)N(C)C4CC4)C4(O)CCC(F)(F)CC4)[C@@H]3O)nn2)cnc1F` [Example 21.44.221S., (S)-N-Cyclopropyl-2-(4,4-difluoro-1-hydroxycyclohexyl)-2-(((2S,3R,4S,5R,6R)-4-(4-(6-fluoro-5-methylpyridin-3-yl)-1H-1,2,3-triazol-1-yl)-3,5-dihydroxy-6-(hydroxymethyl)tetrahydro-2H-pyran-2-yl)thio)-N-methylacetamide] is 0.07 µM; for `Cc1cc(-c2cn([C@H]3[C@@H](O)[C@@H](CO)O[C@@H](S[C@@H](C(=O)N(C)C4CC4)C4(O)CCC(F)(F)CC4)[C@@H]3O)nn2)cnc1F` [Example 21.44.221R., (R)-N-Cyclopropyl-2-(4,4-difluoro-1-hydroxycyclohexyl)-2-(((2S,3R,4S,5R,6R)-4-(4-(6-fluoro-5-methylpyridin-3-yl)-1H-1,2,3-triazol-1-yl)-3,5-dihydroxy-6-(hydroxymethyl)tetrahydro-2H-pyran-2-yl)thio)-N-methylacetamide] it is 0.22 µM; for `CC1CN(C(=O)[C@@H](S[C@@H]2O[C@H](CO)[C@H](O)[C@H](n3cc(-c4cc(F)c(F)c(F)c4)nn3)[C@H]2O)C(C)(C)O)C1` [Example 2.31.205S., (S)-2-(((2S,3R,4S,5R,6R)-3,5-dihydroxy-6-(hydroxymethyl)-4-(4-(3,4,5-trifluorophenyl)-1H-1,2,3-triazol-1-yl)tetrahydro-2H-pyran-2-yl)thio)-3-hydroxy-3-methyl-1-(3-methylazetidin-1-yl)butan-1-one] it is 0.82 µM.
Same read-out and setting: to `CC(C)(O)[C@@H](S[C@@H]1O[C@H](CO)[C@H](O)[C@H](n2cc(-c3cc(F)c(F)c(F)c3)nn2)[C@H]1O)C(=O)N1CCCC1` [Example 2.31.211R, (R)-2-(((2S,3R,4S,5R,6R)-3,5-Dihydroxy-6-(hydroxymethyl)-4-(4-(3,4,5-trifluorophenyl)-1H-1,2,3-triazol-1-yl)tetrahydro-2H-pyran-2-yl)thio)-3-hydroxy-3-methyl-1-(pyrrolidin-1-yl)butan-1-one] belongs 2.15 µM.
